Reference: publication PMC5684319, “Copper (II) binding of NAD(P)H- flavin oxidoreductase (NfoR) enhances its Cr (VI)-reducing ability” (Scientific Reports, 2017)

Molecular target: T1, NfoR (NAD(P)H-flavin oxidoreductase) (Staphylococcus aureus, UniProt Q2FVA4)
T1 construct: gene SAOUHSC_02829; N-terminal 6xHis tag, pET-28a (pEnfoR), E. coli Rosetta (DE3), HisTrap; dimer by homology model only; residues named: His100, His128, Cys163, Met165
T1 sequence (Q2FVA4 1-223): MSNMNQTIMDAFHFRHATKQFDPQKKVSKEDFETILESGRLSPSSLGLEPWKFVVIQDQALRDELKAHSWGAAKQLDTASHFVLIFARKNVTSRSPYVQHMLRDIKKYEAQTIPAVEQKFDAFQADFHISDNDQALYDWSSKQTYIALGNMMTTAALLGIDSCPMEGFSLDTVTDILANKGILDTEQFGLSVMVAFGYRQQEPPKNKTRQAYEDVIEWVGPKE
Assay: HPLC of flavin released by heating the purified protein
Format: binding
Settings: FMN co-purified with the protein; non-covalent; occupancy, not an affinity

For `Cc1cc2nc3c(=O)[nH]c(=O)nc-3n(C[C@H](O)[C@H](O)[C@H](O)COP(=O)(O)O)c2cc1C` [FMN], the “percent of FMN/isolated NfoR” value was 79.98%.
